One substance from article PMC12469269, “Investigating SMR Peptide Interactions with Breast Cancer-Associated Proteins” (International Journal of Molecular Sciences, 2025) can be followed below.

The subject of this test is Jurkat T cells. In words: EV secretion, Nef-GFP (Figure 6A), Jurkat T cells. The class given is cell-based. To be noted: 349.6 nM SMRwt-CPP or 357.27 nM VIMwt-CPP, 24 h. How it is done: To investigate whether SMRwt and VIMwt peptides can suppress extracellular vesicle (EV) secretion, Jurkat T cells were co-transfected with wild-type Nef-GFP and treated with either SMRwt-CPP (349.6 nM) or VIMwt-CPP (357.27 nM) peptides. GFP fluorescence in the culture media was used as a proxy for Nef-associated EV release after 24 h of incubation.
Figure 6 SMRwt and VIMwt peptides decrease extracellular vesicle secretion in Jurkat T cells and breast cancer cells. (A) Jurkat T cells were co-transfected with 1 µg of wild-type Nef-GFP plasmid and treated with either 349.6 nM SMRwt-CPP or 357.27 nM VIMwt-CPP peptides. After 24 h at 37 °C, culture media were collected and assayed for extracellular vesicle (EV) secretion using GFP fluorescence as a proxy. (B,C) MDA-MB-231 and MCF-7 breast cancer cells were treated with either 349.6 nM SMRwt-CPP or 357.27 nM VIMwt-CPP peptides for 24 h at 37 °C. Cells were then labeled with 5 µM N-Rh-PE at 4 °C for 1 h, washed, and incubated in fresh media for an additional 24 h. Supernatants were assayed for EV secretion using N-Rh-PE fluorescence. Bar graphs show relative EV levels. Data represent mean ± SD from three independent experiments. Statistical comparisons were performed using appropriate tests; p-values are indicated. […]

Some results are limits rather than exact numbers.

As for “H-LYEEEMREGRKKRRQRRRPPQ - OH [VIMwt-CPP]”, the “p, peptide vs Nef-GFP alone, EV secretion” value is reported as below 0.0006.
